Results taken from patent publication US20190015379A1, “USE OF DIANHYDROGALACTITOL AND ANALOGS AND DERIVATIVES THEREOF, TOGETHER WITH RADIATION, TO TREAT NON-SMALL-CELL CARCINOMA OF THE LUNG AND GLIOBLASTOMA MULTIFORME AND SUPPRESS PROLIFERATION OF CANCER STEM CELLS” (DelMar Pharmaceuticals, Inc., priority 2014, published 2019).

Experiments:
[1] = tested on: A549 human lung adenocarcinoma xenograft tumors; assay: A549 NSCLC xenograft tumor growth in Rag2 mice; type: in vivo, female Rag2 mice
Protocol: The purpose of the study reported in this Example is to evaluate the activity of dianhydrogalactitol in in vivo models of drug-resistant NSCLC in comparison to other drugs, including cisplatin. Rag2 mice bearing subcutaneous human lung adenocarcinoma xenograft tumors of either TKI-resistant (H1975) or TKI-sensitive (A549) origin were treated.
Two human NSCLC cell lines, A549 (TKI-sensitive) and H1975 (TKI-resistant), were used as xenograft tumor models in female Rag2 mice. The mice were 6 to 8 weeks of age and weighed 18-23 grams. 10 mice were used per group.
Cisplatin was used in normal saline at a dose of 5 mg/kg. Administration was intravenous.
Dianhydrogalactitol was used in 0.9% sodium chloride for injection at 1.5 mg/kg to 6 mg/kg. Administration was intraperitoneal.
Treatment was initiated at a tumor volume of 100 mm^3 to 150 mm^3.
On day 0, tumor cells were implanted subcutaneously into mice in a volume of 50 μL in Matrigel™ using a 28-gauge needle; injection of the tumor cells was in the back of the mice. Mice were randomly assigned to groups based on tumor volume.
Tumor growth was monitored by measuring tumor dimensions with calipers beginning on the first day of treatment. Tumor length and width measurements were obtained each Monday, Wednesday, and Friday. Tumor volumes were calculated according to the equation L×W^2/2 with the length (in mm) being defined as the longer axis of the tumor. Animals were weighed at the time of tumor measurement. Tumors were allowed to grow to a maximum of 800 mm^3 before termination.

[2] = cited from earlier work
[3] = in vivo; cited from earlier work
[4] = tested on: normal human neural stem cells; conditions: neurosphere growth assays; Hu et al. 2012; cited from earlier work
[5] = dianhydrogalactitol 1.5 mg/kg i.p. (group 3)
[6] = dianhydrogalactitol 3 mg/kg i.p. (group 4)

Question: Which results are given for dianhydrogalactitol?
Answer: day on which a mean tumor volume of 200 mm^3 was observed [1, 5]: 45 days; day on which a mean tumor volume of 400 mm^3 was reached [1, 5]: 67 days; tumor doubling time [1, 5]: 22; number of animals remaining on study on day 70 ([1]; dianhydrogalactitol 1.5 mg/kg i.p. M, W, F for 3 weeks (group 3)): 7/10; tumor growth delay compared to untreated controls ([1]; dianhydrogalactitol 3 mg/kg i.p.): 26 days; day on which a mean tumor volume of 200 mm^3 was observed [1, 6]: 42 days; day on which a mean tumor volume of 400 mm^3 was reached [1, 6]: 81 days; tumor doubling time [1, 6]: 39; number of animals remaining on study on day 70 ([1]; dianhydrogalactitol 3 mg/kg i.p. M, W, F for 3 weeks (group 4)): 6/10; day on which a mean tumor volume of 200 mm^3 was observed ([1]; dianhydrogalactitol 6 mg/kg i.p. (group 5)): 54 days; number of animals remaining on study on day 70 ([1]; dianhydrogalactitol 6 mg/kg i.p. (group 5; stopped after 3 doses)): 8/10; Recovery ([2]; GBM chemotherapy, historical data): Within 7-8 days; DLT ([2]; human, in vivo): Hematologic; Nadir ([2]; human, in vivo): 18 to 21 days; Other Severe Toxicities Reported (>2%) ([2]; human, in vivo): None; blood-brain barrier passage [3]: readily crosses the blood-brain barrier and accumulates in brain tissue; effect on normal human neural stem cells [4]: minimal effect
